According to paper PMC4472782, “Antibacterial Characterization of Novel Synthetic Thiazole Compounds against Methicillin-Resistant Staphylococcus pseudintermedius” (PLoS ONE, 2015):
Values after ≈ are worked out from the molar mass of the structure shown.

Assays:
[1] = tested on: murine macrophage cell line (J774.A1); test: In vitro cytotoxicity analysis (MTS assay); type: cell-based; settings: 10 μg/mL, J774.A1, two hours
Method: Compounds were assayed at concentrations of 5 μg/mL, 10 μg/mL, 20 μg/mL, and 40 μg/mL against a murine macrophage cell line (J774.A1) (ATCC TIB-67, American Type Culture Collection (ATCC), Manassas, VA, USA) to determine the potential toxic effect in vitro. Cells were cultured in Dulbeco’s modified Eagle’s medium (Sigma-Aldrich, St. Louis, MO, USA) with 10% fetal bovine serum (USA Scientific, Inc.) at 37°C with 5% CO2. Controls received DMSO alone at a concentration equal to that in drug-treated cell samples. The cells were incubated with the compounds in a 96-well plate at 37°C and 5.0% CO2 for two hours prior to addition of the assay reagent MTS 3-(4,5-dimethylthiazol-2-yl)-5-(3-carboxymethoxyphenyl)-2-(4-sulfophenyl)-2H-tetrazolium) (Promega, Madison, WI, USA). Absorbance readings were taken using a kinetic ELISA microplate reader (Molecular Devices, Sunnyvale, CA, USA). The quantity of viable cells after treatment with each compound was expressed as a percentage of the control, DMSO.
All statistical analyses were performed with GraphPad Prism 6.0 (GraphPad Software, La Jolla, CA). Data generated from cytotoxicity analysis of the thiazole compounds against J774.A1 cells and the 260 and 280 nm cell leakage analysis were analyzed using one-way ANOVA, with post hoc Tukey's multiple comparisons test (P < 0.05).

[2] = Kinetic (turbidimetric) solubility in PBS; type: physicochemical; settings: aqueous buffer, kinetic from dmso stock; phosphate-buffered saline; highest concentration with no precipitate; read-out: Solubility Limit
Method: The absorbance of the PBS-containing plate was measured prior to addition of the test agents to determine the background absorbance. After 2 hours, the presence of precipitate was detected by turbidity (absorbance at 540 nm).

MRSP SP3 = test: Post-antibiotic effect against MRSP; type: cell-based, Staphylococcus pseudintermedius; settings: 4 × MIC for one hour
Method: A tube containing untreated bacterial cells served as a control. Afterward, the compound/antibiotic was washed out by diluting bacteria 1:1000 in MHB. Counts of CFU for all cultures were obtained after washing. Aliquots (100 μL) of bacteria were removed every hour (for 10 hours), serially diluted in PBS, and plated on TSA plates. TSA plates were incubated for 20 hours at 37°C before CFU values were determined.

## CCCCC#Cc1ccc(-c2nc(C)c(/C(C)=N/NC(=N)N)s2)cc1 [Compound 3]
[1]
  toxicity to murine macrophage cells (MTS assay): not toxic
[2]
  solubility at 2 h: 5.51 µg/mL (≈ 15.6 µM)
MRSP SP3
  Post-antibiotic Effect: >9 h
